Patent US10196357B2, “Biaryl compositions and methods for modulating a kinase cascade” (Athenex, Inc., priority 2007, dated 2019)
Several values for one entry are separate records, joined by “and”; a condition that tells them apart may be missing. Equal entries are not always repeated. Where two headings read alike, the source gives them in different places.

Assays:
[1] = brain exposure after oral administration; type: in vivo, male CD-1 mice; details: for concentration at 2 hr / concentration at 5 hr: Male CD-1 mice, single PO dose 50 mg/kg (Group 4); for Cmax / Tmax: Brain
Description: Plasma concentrations were measured in mice after oral administration. All doses were formulated in purified water. Four groups of male CD-1 mice were dosed after an overnight fast and fed 4 hours post-dose. Dosing was as follows:
Protein was precipitated with 0.25 mL acetonitrile for plasma, 0.25 mL for brain. After centrifugation, supernatant was directly injected into an LC/MS system. The limit of quantitation was 1 ng/mL using a 50 μL aliquot for plasma and a 50 μL, aliquot for brain. The standard curve was 1 to 1,000 ng/mL for both plasma and brain. HPLC conditions were as follows:
HPLC System: Shimadzu SCL-10 System
• Analytical Column: Aquasil C18 5 μm 100×2 mm column. • Column Temperature: Ambient temperature • Autosampler Temperature: Ambient temperature • Mobile Phase A) 10 mM Ammonium formate in water (pH 4). • B) Acetonitrile. • Flow Rate: 0.6 mL/min • Injection Volume: 2 μL • Gradient:
• Mass Spectrometry Conditions were as follows: • Instrument: ABI Sciex API 4000 • Mode: ESI+ • Experiment: MRM (multiple reaction monitoring) • Transitions: KX2-391: m/z 432.4→114.2 (Rt=3.11 minute) • KX2-361: m/z 406.1→253.2 (Rt=3.33 minute)

[2] = system: lung cancer cell line A549; experiment: tumor growth inhibition, A549; type: cell-based, Human; details: Homo sapiens, A549, A549, BrdU, T=72
Excerpt: (§1) Growth Inhibition. […] T1 values≤T0 values were designated as T, cytotoxicity.

Shc Y239/240 = experiment: intracellular phosphorylation, Shc Y239/240; type: cell-based; details: whole cells
Description: HT29 (colon cancer) and c-Src527F/NIH-3T3 (Src transformed) cell lines were treated with KX2-391 or with AstraZeneca's ATP competitive Src inhibitor AZ28. AZ28 serves as a positive comparator to show what a validated Src inhibitor should do in these assays. After treatment with compound, cells were lysed, subjected to PAGE and probed with a battery of antibodies. […] In addition, off-target protein phosphorylation was also investigated. Further, induction of apoptosis was evaluated via Caspase 3 cleavage. Multiple doses of each compound were tested because the trends in response to increasing drug concentration are the most reliable indicator of activity.
The same range of multiples of the GI50 for AZ28 in these two cell lines was run as a comparison.
KX2-391 and AZ28 inhibited Src transphosphorylation.

MDA231 (Breast) = experiment: growth inhibition (BrdU), MDA231; type: cell-based, Human; details: Homo sapiens, MDA-MB-231, MDA-MB-321, BrdU, T=72
Excerpt: as §1

Fyn(h) = Fyn(h) (Homo sapiens, UniProt P06241); experiment: isolated kinase activity, Fyn; type: biochemical; details: compound @ 10 μM
Chain of Fyn(h) (P06241 whole entry): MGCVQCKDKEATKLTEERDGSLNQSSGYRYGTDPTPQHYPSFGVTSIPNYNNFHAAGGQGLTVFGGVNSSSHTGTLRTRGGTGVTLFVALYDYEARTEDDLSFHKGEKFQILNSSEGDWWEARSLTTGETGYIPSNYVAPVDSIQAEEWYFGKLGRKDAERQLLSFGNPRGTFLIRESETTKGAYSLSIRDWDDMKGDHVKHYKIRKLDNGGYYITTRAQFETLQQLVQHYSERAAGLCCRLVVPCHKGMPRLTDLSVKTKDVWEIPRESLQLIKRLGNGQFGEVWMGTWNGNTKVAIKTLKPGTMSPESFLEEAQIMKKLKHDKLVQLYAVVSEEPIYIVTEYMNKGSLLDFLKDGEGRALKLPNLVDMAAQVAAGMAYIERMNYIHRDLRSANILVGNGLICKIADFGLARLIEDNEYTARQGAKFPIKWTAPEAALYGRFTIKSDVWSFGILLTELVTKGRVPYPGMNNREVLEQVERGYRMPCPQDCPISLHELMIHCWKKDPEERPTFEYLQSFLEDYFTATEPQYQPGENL
Excerpt: (§2) Table 8 illustrates percent activity of isolated kinases in the presence of the AstraZeneca ATP-competitive inhibitor (KX2-328, AZ-28) or KX2-391 relative to control (untreated) isolated kinases.

CHK1(h) = CHK1(h) (Homo sapiens, UniProt O14757); experiment: isolated kinase activity, CHK1; type: biochemical; details: compound @ 10 μM
Chain of CHK1(h) (O14757 whole entry): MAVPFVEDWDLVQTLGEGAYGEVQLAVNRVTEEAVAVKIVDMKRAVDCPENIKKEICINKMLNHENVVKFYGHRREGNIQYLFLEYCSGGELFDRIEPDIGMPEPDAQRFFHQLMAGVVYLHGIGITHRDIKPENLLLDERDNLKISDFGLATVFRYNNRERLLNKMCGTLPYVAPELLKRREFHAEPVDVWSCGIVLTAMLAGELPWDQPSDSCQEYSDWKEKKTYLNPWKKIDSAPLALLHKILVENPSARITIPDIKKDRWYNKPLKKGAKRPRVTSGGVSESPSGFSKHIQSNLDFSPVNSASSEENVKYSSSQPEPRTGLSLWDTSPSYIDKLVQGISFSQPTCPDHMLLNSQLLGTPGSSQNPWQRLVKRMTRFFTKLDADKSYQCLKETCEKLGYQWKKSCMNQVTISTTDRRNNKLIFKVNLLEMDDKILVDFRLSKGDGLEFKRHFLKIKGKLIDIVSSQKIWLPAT
Excerpt: as §2

SKOV-3 (Ovarian) = experiment: growth inhibition (BrdU), SKOV-3; type: cell-based, Human; details: Homo sapiens, SK-OV-3, SKOV-3, BrdU, T=72
Excerpt: as §1

[3] = male, CD-1, mouse, single oral dose 10 mg/kg
[4] = male, CD-1, mouse, single oral dose 50 mg/kg

O=C(Cc1ccc(-c2ccc(OCCN3CCOCC3)cc2)cn1)NCc1ccccc1 [KX2-391]
concentration at 2 hr ([1]; male, CD-1, mouse, brain, po, 50 mg/kg, 2 hr, Group B, read-out: KX2-391 Brain Concentrations, Group B): 986 ng/g | concentration at 2 hr ([1]; male, CD-1, mouse, brain, po, 50 mg/kg, 2 hr, Group C, read-out: KX2-391 Brain Concentrations, Group C): 874 ng/g | concentration at 2 hr ([1]; male, CD-1, mouse, brain, po, 50 mg/kg, 2 hr, Mean, read-out: KX2-391 Brain Concentrations, Mean): 758 ng/g | concentration at 5 hr ([1]; male, CD-1, mouse, brain, po, 50 mg/kg, 5 hr, Group A, read-out: KX2-391 Brain Concentrations, Group A): 122 ng/g | concentration at 5 hr ([1]; male, CD-1, mouse, brain, po, 50 mg/kg, 5 hr, Group B, read-out: KX2-391 Brain Concentrations, Group B): 260 ng/g | concentration at 5 hr ([1]; male, CD-1, mouse, brain, po, 50 mg/kg, 5 hr, Group C, read-out: KX2-391 Brain Concentrations, Group C): 239 ng/g | concentration at 5 hr ([1]; male, CD-1, mouse, brain, po, 50 mg/kg, 5 hr, Mean, read-out: KX2-391 Brain Concentrations, Mean): 207 ng/g | concentration at 0.5 h ([1]; male, CD-1, mouse, brain, po, 50 mg/kg, single PO dose 50 mg/kg (Group 2), 0.5 hr, read-out: Brain Concentrations, Group A, B, C): 2800 ng/g | concentration at 0.5 h ([1]; male, CD-1, mouse, brain, po, 50 mg/kg, single PO dose 50 mg/kg (Group 2), 0.5 hr, read-out: Brain Concentrations, Mean): 3690 ng/g | concentration at 1 h ([1]; male, CD-1, mouse, brain, po, 50 mg/kg, single PO dose 50 mg/kg (Group 2), 1 hr, read-out: Brain Concentrations, Group A, B, C): 946 ng/g | concentration at 1 h ([1]; male, CD-1, mouse, brain, po, 50 mg/kg, single PO dose 50 mg/kg (Group 2), 1 hr, read-out: Brain Concentrations, Mean): 788 ng/g | concentration at 2 h ([1]; male, CD-1, mouse, brain, po, 50 mg/kg, single PO dose 50 mg/kg (Group 2), 2 hr, read-out: Brain Concentrations, Group A, B, C): 613 ng/g | concentration at 2 h ([1]; male, CD-1, mouse, brain, po, 50 mg/kg, single PO dose 50 mg/kg (Group 2), 2 hr, read-out: Brain Concentrations, Mean): 610 ng/g | concentration at 5 h ([1]; male, CD-1, mouse, brain, po, 50 mg/kg, single PO dose 50 mg/kg (Group 2), 5 hr, read-out: Brain Concentrations, Mean): 370 ng/g | Cmax [1, 3]: 398 ng/g | Tmax [1, 3]: 30 min | Cmax [1, 4]: 3690 ng/g | Tmax [1, 4]: 30 min | Brain Concentrations, Group A, B, C ([1]; single PO dose 10 mg/kg (Group 1), 0.5 hr, 10 mg/kg): 509.00 ng/g and 286.70 ng/g | Brain Concentrations, Group A, B, C ([1]; single PO dose 10 mg/kg (Group 1), 2 hr, 10 mg/kg): 84.04 ng/g and 85.88 ng/g | Brain Concentrations, Group A, B, C ([1]; single PO dose 10 mg/kg (Group 1), 5 hr, 10 mg/kg): 75.21 ng/g and 71.22 ng/g | Brain Concentrations, Group A, B, C ([1]; single PO dose 50 mg/kg (Group 2), 0.5 hr, 50 mg/kg): 3190.42 ng/g and 5089.32 ng/g | Brain Concentrations, Group A, B, C ([1]; single PO dose 50 mg/kg (Group 2), 1 hr, 50 mg/kg): 936.29 ng/g and 482.22 ng/g | Brain Concentrations, Group A, B, C ([1]; single PO dose 50 mg/kg (Group 2), 2 hr, 50 mg/kg): 530.41 ng/g and 684.97 ng/g | GI50 [2]: 9.39 nM | phosphorylation of Shc Y239/240 (Src transphosphorylation) (Shc Y239/240): inhibited | GI50 (MDA231 (Breast)): 19.8 nM | percent activity of isolated kinase relative to control (Fyn(h)): 85% | percent activity of isolated kinase relative to control (CHK1(h)): 105% | GI50 (SKOV-3 (Ovarian)): 9.75 nM
